From the OligoGym collection come the findings set out here.

After the bases stand the sugars from the 5' end (letter, count) and the backbone: PS all phosphorothioate, else s phosphorothioate and o phosphodiester by linkage. Methylation of C is not given here. e = 2'-O-(2-methoxyethyl) (MOE); k = constrained ethyl (cEt); d = 2'-deoxy (DNA); m = 2'-O-methyl

For this series, the target named is HSD17B13. The note with it: ASO, HepaRG.

TTCAGTTAGCAGCTAA (sugars k3 d10 k3, PS): the target mRNA inhibition is 0% (0.02 µM); 0% (0.078 µM); 26% (0.313 µM); 72% (1 µM); 63% (1.25 µM); 82% (5 µM). For the sequence TAGCAAAACACTTGCT (sugars k3 d10 k3, PS), the target mRNA inhibition (1 µM) amounted to 21%. Sequence “GTATGTTTATGTAAGC (sugars k3 d1 m1 d8 k3, PS)” registered a target mRNA inhibition (0.02 µM) of 0%; a target mRNA inhibition (0.078 µM) of 0%; a target mRNA inhibition (0.313 µM) of 10%; a target mRNA inhibition (1 µM) of 66%; a target mRNA inhibition (1.25 µM) of 72%; a target mRNA inhibition (5 µM) of 90%.

Turning to “TTGAGTTCTCCACTGC (sugars k3 d1 m1 d8 k3, PS)”, the target mRNA inhibition (1 µM) came to 18%. For the setting “1 µM”, TTTTATTGGGCCCAAT (sugars k3 d10 k3, PS) came in with a target mRNA inhibition of 18%. With “GCATTAATGCCACCCT (sugars k3 d9 k3 e1, PS)”, under “1 µM”, the target mRNA inhibition turned out to be 51%. As for GCACTAAAGGTTTCTG (sugars k3 d10 k3, PS), the target mRNA inhibition runs as follows: (0.02 µM) 24%; (0.078 µM) 39%; (0.313 µM) 58%; (1 µM) 75%; (1.25 µM) 79%; (5 µM) 90%.

ATGTTATCTCAAGTCA (sugars k3 d10 k3, PS) had a target mRNA inhibition (1 µM) of 79%. As to CTTTCTATCAACCTGC (sugars k3 d10 k3, PS), the target mRNA inhibition (1 µM) is 68%.

For the setting “1 µM”, CCAAGGCCTGAAGTTC (sugars k3 d10 k3, PS) came in with a target mRNA inhibition of 20%. TCAAATGAGGCGGCAC (sugars k3 d10 k3, PS) had a target mRNA inhibition (1 µM) of 46%. Regarding “ACTGCTGCTAGTGCCA (sugars k3 d9 k3 e1, PS)”, for the setting “1 µM”, the target mRNA inhibition was 57%. As to ACAATCTAGCAACCTC (sugars k3 d10 k3, PS), the target mRNA inhibition (1 µM) is 44%.

Turning to AGTAAGGTAAAGTCTA (sugars k3 d10 k3, PS), the target mRNA inhibition (1 µM) came to 55%. On the same count and under the same terms, next, “CTACTTGAACAGTCTT (sugars k3 d9 k3 e1, PS)”: 71%; TTGTACCCTGTTCTCA (sugars k3 d10 k3, PS): 64%. Sequence AATATTGAGGCACTGG (sugars k3 d10 k3, PS) displayed a target mRNA inhibition (1 µM) of 54%. Same read-out and setting: the value for AGCTTTTGTCCACCTT (sugars k3 d10 k3, PS) was 57%. On the same count and under the same terms, the value for AACATAGGCTTAGTGT (sugars k3 d10 k3, PS) was 18%; that for “ATTCTGTGGCATGGCT (sugars k3 d9 k3 e1, PS)” was 68%. For the sequence AATGTCCTAGGATGTT (sugars k3 d10 k3, PS), the target mRNA inhibition (1 µM) was 70%.

“CTTGATGTAGTGGGAG (sugars k3 d9 k3 e1, PS)” returned a target mRNA inhibition (1 µM) of 62%.

Regarding GTAATCACAAGTAAGG (sugars k3 d10 k3, PS), the target mRNA inhibition is, setting by setting: (0.02 µM) 0%; (0.078 µM) 12%; (0.313 µM) 32%; (1 µM) 70%; (1.25 µM) 70%; (5 µM) 93%. As to “AATCCCAACCAAACTT (sugars k3 d1 m1 d8 k3, PS)”, under “1 µM”, the target mRNA inhibition worked out at 7%. For GATGTTGACCTCAAAT (sugars k3 d10 k3, PS), the target mRNA inhibition (1 µM) is 0%. For the sequence “TAGCTTTTGTCCACCT (sugars kkdddddddddkekek, PS)”, the target mRNA inhibition by setting is: (0.02 µM) 0%; (0.078 µM) 3%; (0.313 µM) 29%; (1 µM) 71%; (1.25 µM) 53%; (5 µM) 48%. On to TACAGGCCATAATCTT (sugars k3 d10 k3, PS), for which the target mRNA inhibition (1 µM) came out at 16%. Same read-out and setting: the value for CTCTAAATACCCTTGG (sugars k3 d10 k3, PS) was 7%. TCACATATGTGAAGAG (sugars k3 d10 k3, PS): the target mRNA inhibition (1 µM) was 27%. Under “1 µM”, TTAAACTCCAATGTGT (sugars k3 d10 k3, PS) had a target mRNA inhibition of 36%. For TGTTGACCTCAAATGT (sugars k3 d10 k3, PS), where the note is “1 µM”, the target mRNA inhibition is 14%. On to ATATCAATGCCTTAGC (sugars k3 d10 k3, PS), for which the target mRNA inhibition (1 µM) turned out to be 32%.

CTCCATCATCGATGGA (sugars k3 d10 k3, PS) came in with a target mRNA inhibition (1 µM) of 0%. Still for that read-out and setting: next, “TCATAGTGGACTTCAT (sugars k3 d1 m1 d8 k3, PS)”: 44%; TTTTAAGAGGCATGAA (sugars k3 d10 k3, PS): 53%. On the same count and under the same terms, next, TACCTTATTAATATCC (sugars k3 d10 k3, PS): 54%; TTTTAGTCAGGTAGAG (sugars k3 d10 k3, PS): 3%; GCTTATCGAGTTTAGC (sugars k3 d10 k3, PS): 17%. In the case of GACAATTAACATTCGG (sugars k3 d10 k3, PS), the target mRNA inhibition (1 µM) was 69%. Turning to CCTCAAATGAGGCGGC (sugars k3 d10 k3, PS), the target mRNA inhibition (1 µM) came out at 47%.

As for TTACAACCTGGTTTCA (sugars k3 d10 k3, PS), the target mRNA inhibition (1 µM) came to 25%. For the setting “1 µM”, “AGAGGATAGTCCATGC (sugars kkdddddddddkekek, PS)” yielded a target mRNA inhibition of 70%. Consider “TCTTAAACCTTCCCTG (sugars kkdddddddddkekek, PS)”, for which the target mRNA inhibition (1 µM) was determined as 24%. Regarding ATGTAATAGCCAGTAC (sugars k3 d10 k3, PS), the target mRNA inhibition (1 µM) was found to be 52%. On to ATTGGTAAGTATTCCA (sugars k3 d10 k3, PS), for which, for the setting “1 µM”, the target mRNA inhibition is 50%. With CATTCGGCTAGGCGCG (sugars k3 d10 k3, PS), the target mRNA inhibition (1 µM) turned out to be 46%. Under “1 µM”, “GTCTACCTCTAAGTTA (sugars k3 d9 k3 e1, PS)” gave a target mRNA inhibition of 41%.

For CTCAAATGAGGCGGCA (sugars k3 d10 k3, PS), where the note is “1 µM”, the target mRNA inhibition turned out to be 56%. On to “CCAGGTTGAGATAAAG (sugars k3 d1 m1 d8 k3, PS)”, for which the target mRNA inhibition (1 µM) was determined as 49%. For CTAAGTAGTAATTCTA (sugars k3 d10 k3, PS), for the setting “1 µM”, the target mRNA inhibition came to 35%. For CCCAAAAATGTCCTAG (sugars k3 d10 k3, PS), under “1 µM”, the target mRNA inhibition stood at 18%. Take “GTATAGTTATCTTCTC (sugars kkkdddddkdddkkke, PS)”: the target mRNA inhibition (1 µM) was found to be 68%.

Take ACTAATTTAGTCAACT (sugars k3 d10 k3, PS): under “1 µM”, the target mRNA inhibition was found to be 18%. With TCCATCTATCAGACTT (sugars k3 d10 k3, PS), the target mRNA inhibition (1 µM) was found to be 42%.

In the case of CAATTTATTTGCTGGT (sugars k3 d10 k3, PS), where the note is “1 µM”, the target mRNA inhibition amounted to 31%. The sequence CGGTCACCTTTCATAA (sugars k3 d10 k3, PS) gave a target mRNA inhibition (1 µM) of 69%.

GACTGTTGAGCTCAAA (sugars k3 d10 k3, PS) showed a target mRNA inhibition (1 µM) of 52%. The sequence “TATTATGTGATTGAGT (sugars k3 d1 m1 d8 k3, PS)” came in with a target mRNA inhibition (1 µM) of 28%.

For the sequence CATTAATGCCACCCTA (sugars k3 d10 k3, PS), the target mRNA inhibition (1 µM) was 8%. On to GTACATGCCAAGCTTT (sugars k3 d10 k3, PS), for which, under “1 µM”, the target mRNA inhibition was found to be 61%. In turn, GAAGTATGTGAACTCC (sugars k3 d10 k3, PS) displayed a target mRNA inhibition (1 µM) of 56%.

In the case of GACGATGTGGCCATGA (sugars k3 d10 k3, PS), for the setting “1 µM”, the target mRNA inhibition was determined as 42%. Regarding TTGCTGGAACAATATG (sugars k3 d10 k3, PS), the target mRNA inhibition (1 µM) was found to be 20%. The same measure, in the same setting: the value for “GATAUTCTGTGGCATG (sugars k3 d1 m1 d8 k3, PS)” was 60%; that for CGCAACAGTTTAGATT (sugars k3 d10 k3, PS) was 57%; that for CTGCCCTAGATTCTAC (sugars k3 d10 k3, PS) was 33%. With “ATGTATCTTATAAGAC (sugars k3 d1 m1 d8 k3, PS)”, the target mRNA inhibition (1 µM) was found to be 3%. In the case of ATGCATTAAAACTCTC (sugars k3 d10 k3, PS), the target mRNA inhibition (1 µM) came to 12%. In the case of CTGTGTTAGCTTTAAT (sugars k3 d10 k3, PS), the target mRNA inhibition was determined as 9% (0.02 µM); 0% (0.078 µM); 28% (0.313 µM); 67% (1 µM); 77% (1.25 µM); 92% (5 µM). For the setting “1 µM”, “ATGCUACTTGAACAGT (sugars k3 d1 m1 d8 k3, PS)” came in with a target mRNA inhibition of 46%. ATCTCTTAGCTGTGCA (sugars k3 d10 k3, PS) yielded a target mRNA inhibition (1 µM) of 63%.

In turn, TTGACCTCAAATGTCT (sugars k3 d10 k3, PS) came in with a target mRNA inhibition (1 µM) of 0%. Under “1 µM”, “CTAGGGAAATCTTTCA (sugars k3 d1 m1 d8 k3, PS)” gave a target mRNA inhibition of 19%.

Take “TTAAGATACCCAGGTT (sugars k3 d1 m1 d8 k3, PS)”: the target mRNA inhibition (1 µM) amounted to 30%. Under “1 µM”, GTAGATGATGGTGATC (sugars k3 d10 k3, PS) yielded a target mRNA inhibition of 36%. On to CACTAAAGGTTTCTGT (sugars k3 d10 k3, PS), for which the target mRNA inhibition (1 µM) stood at 56%. Regarding AGCTGAGTGGATTACA (sugars k3 d10 k3, PS), under “1 µM”, the target mRNA inhibition amounted to 29%. AGGTTTAGCAATTTAG (sugars k3 d10 k3, PS) gave a target mRNA inhibition (1 µM) of 54%.

As for CTTGAGAGTGATTGCC (sugars k3 d10 k3, PS), the target mRNA inhibition (1 µM) was 64%. On the same count and under the same terms, the value for “GAAGTTAGTATAGTTA (sugars kkdddddddddkekek, PS)” was 56%; that for “ATACATTAGCAAGCTA (sugars k3 d9 k3 e1, PS)” was 48%; that for “AACATCTCTGGGACCA (sugars kkdddddddddkekek, PS)” was 36%.

Sequence “GATTAAGCAGAATTGT (sugars k3 d9 k3 e1, PS)” came in with a target mRNA inhibition (1 µM) of 28%.
